{"source": "ChEMBL document CHEMBL6134930", "about": "“Discovery of AB801, a Potent and Selective Inhibitor of AXL Receptor Tyrosine Kinase for Use in Cancer Therapy” (J Med Chem, 2025)", "key": {"[1]": {"biological_target": "T1, Cytochrome P450 2C8 (Homo sapiens, UniProt P10632)", "T1 sequence (P10632 whole entry)": "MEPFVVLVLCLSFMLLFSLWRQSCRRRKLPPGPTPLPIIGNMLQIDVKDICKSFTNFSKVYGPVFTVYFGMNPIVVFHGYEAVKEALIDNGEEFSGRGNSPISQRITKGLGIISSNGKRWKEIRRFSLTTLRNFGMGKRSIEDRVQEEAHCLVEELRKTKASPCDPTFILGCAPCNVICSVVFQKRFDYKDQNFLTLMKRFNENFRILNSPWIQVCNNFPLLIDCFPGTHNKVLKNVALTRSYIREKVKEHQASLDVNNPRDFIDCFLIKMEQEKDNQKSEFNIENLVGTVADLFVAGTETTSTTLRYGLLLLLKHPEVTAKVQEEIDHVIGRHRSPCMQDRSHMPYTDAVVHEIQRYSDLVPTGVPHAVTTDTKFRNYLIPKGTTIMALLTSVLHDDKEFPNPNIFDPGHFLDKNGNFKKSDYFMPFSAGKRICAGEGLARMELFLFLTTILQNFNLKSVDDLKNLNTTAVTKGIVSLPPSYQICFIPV", "assay": "Inhibition of CYP2C8 (unknown origin) measured after 30 mins", "type": "ADME"}, "[2]": {"assay": "Tmax in human (healthy individuals) at 10 mg, single oral dose", "type": "ADME", "settings": "in vivo"}, "[3]": {"assay": "Clearance in cynomolgus monkey at 0.5 mg/kg, iv measured up to 24 hrs by LC-MS/MS analysis", "type": "ADME, organism-based, Macaca fascicularis", "settings": "in vivo"}, "[4]": {"assay": "Toxicity in mouse xenografted with human 786-0 cells assessed as body weight at 30 mg/kg, po once daily for 15 days", "type": "organism-based", "settings": "in vivo, 360 h, time 15 day"}, "[5]": {"assay": "Cmax in human (healthy individuals) at 30 mg, single oral dose measured uo to 120 hrs", "type": "ADME", "settings": "in vivo"}, "[6]": {"assay": "Cmax in human (healthy individuals) at 90 mg, single oral dose measured uo to 120 hrs", "type": "ADME", "settings": "in vivo"}, "[7]": {"assay": "AUC (0 to 120 hrs) in human (healthy individuals) at 270 mg, single oral dose", "type": "ADME", "settings": "in vivo"}, "[8]": {"assay": "Half life in human (healthy individuals) at 270 mg, single oral dose", "type": "ADME", "settings": "in vivo"}, "[9]": {"tested_on": "786-0", "assay": "Anti-tumor activity against human 786-0 cells xenografted in mouse model assessed as reduction in tumor volume in presence of sunitinib at 30 mg/kg, po once daily for 15 days", "type": "functional, organism-based", "settings": "time 15.0 day"}, "[10]": {"biological_target": "T2, Cytochrome P450 2B6 (Homo sapiens, UniProt P20813)", "T2 sequence (P20813 whole entry)": "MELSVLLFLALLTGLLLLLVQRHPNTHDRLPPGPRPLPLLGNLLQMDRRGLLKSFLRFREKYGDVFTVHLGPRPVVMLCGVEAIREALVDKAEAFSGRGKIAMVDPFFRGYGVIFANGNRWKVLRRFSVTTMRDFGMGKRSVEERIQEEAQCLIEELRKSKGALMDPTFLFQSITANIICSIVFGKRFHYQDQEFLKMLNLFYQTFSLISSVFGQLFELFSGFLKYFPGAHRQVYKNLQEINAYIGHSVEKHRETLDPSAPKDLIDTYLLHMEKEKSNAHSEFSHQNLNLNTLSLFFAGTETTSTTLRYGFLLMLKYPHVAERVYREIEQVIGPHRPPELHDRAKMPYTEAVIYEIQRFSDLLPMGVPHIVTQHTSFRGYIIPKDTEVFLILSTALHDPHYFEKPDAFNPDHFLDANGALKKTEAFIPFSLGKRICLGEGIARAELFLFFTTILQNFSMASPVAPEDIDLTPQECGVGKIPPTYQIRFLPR", "assay": "Inhibition of CYP2B6 (unknown origin) measured after 30 mins", "type": "ADME"}, "[11]": {"assay": "Half life in human (healthy individuals) at 90 mg, single oral dose", "type": "ADME", "settings": "in vivo"}, "[12]": {"tested_on": "786-0", "assay": "Anti-tumor activity against human 786-0 cells xenografted in mouse model assessed as reduction in tumor volume in presence of sunitinib at 10 mg/kg, po once daily for 15 days", "type": "functional, organism-based", "settings": "time 15.0 day"}, "[13]": {"assay": "Selectivity ratio, ratio of Ki for TYRO3 (unknown origin) to Ki for AXL (unknown origin)"}, "[14]": {"assay": "Selectivity ratio, ratio of Ki for TRKA (unknown origin) to Ki for AXL (unknown origin)"}, "[15]": {"assay": "Clearance in Beagle dog at 0.5 mg/kg, iv measured up to 24 hrs by LC-MS/MS analysis", "type": "ADME, organism-based, Canis lupus familiaris", "settings": "in vivo"}, "[16]": {"assay": "Clearance in CD-1 mouse at 0.5 mg/kg, iv measured up to 24 hrs by LC-MS/MS analysis", "type": "ADME, organism-based", "settings": "in vivo"}, "[17]": {"tested_on": "786-0", "assay": "Anti-tumor activity against human 786-0 cells xenografted in mouse model assessed as tumor growth inhibition at 30 mg/kg, po once daily for 15 days", "type": "functional, organism-based", "settings": "time 15.0 day"}, "[18]": {"biological_target": "Cytochrome P450 2C19 (Homo sapiens, UniProt P33261)", "sequence (P33261 whole entry)": "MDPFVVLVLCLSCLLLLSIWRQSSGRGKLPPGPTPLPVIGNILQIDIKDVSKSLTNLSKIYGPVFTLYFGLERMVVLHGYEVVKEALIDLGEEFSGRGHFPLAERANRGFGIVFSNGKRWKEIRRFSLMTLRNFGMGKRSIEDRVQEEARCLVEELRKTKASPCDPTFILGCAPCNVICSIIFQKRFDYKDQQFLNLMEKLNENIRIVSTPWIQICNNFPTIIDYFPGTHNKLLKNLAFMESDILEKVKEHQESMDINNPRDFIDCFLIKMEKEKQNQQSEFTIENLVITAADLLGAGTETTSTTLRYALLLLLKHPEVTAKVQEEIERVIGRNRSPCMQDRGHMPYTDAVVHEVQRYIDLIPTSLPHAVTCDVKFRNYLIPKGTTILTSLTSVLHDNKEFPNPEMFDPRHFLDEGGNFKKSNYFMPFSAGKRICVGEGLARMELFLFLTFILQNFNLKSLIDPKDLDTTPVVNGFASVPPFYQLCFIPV", "assay": "Inhibition of CYP2C19 (unknown origin) measured after 30 mins", "type": "ADME"}, "[19]": {"assay": "Half life in human (healthy individuals) at 10 mg, single oral dose", "type": "ADME", "settings": "in vivo"}, "[20]": {"assay": "Tmax in human (healthy individuals) at 90 mg, single oral dose", "type": "ADME", "settings": "in vivo"}, "[21]": {"biological_target": "T3, Cytochrome P450 1A2 (Homo sapiens, UniProt P05177)", "T3 sequence (P05177 whole entry)": "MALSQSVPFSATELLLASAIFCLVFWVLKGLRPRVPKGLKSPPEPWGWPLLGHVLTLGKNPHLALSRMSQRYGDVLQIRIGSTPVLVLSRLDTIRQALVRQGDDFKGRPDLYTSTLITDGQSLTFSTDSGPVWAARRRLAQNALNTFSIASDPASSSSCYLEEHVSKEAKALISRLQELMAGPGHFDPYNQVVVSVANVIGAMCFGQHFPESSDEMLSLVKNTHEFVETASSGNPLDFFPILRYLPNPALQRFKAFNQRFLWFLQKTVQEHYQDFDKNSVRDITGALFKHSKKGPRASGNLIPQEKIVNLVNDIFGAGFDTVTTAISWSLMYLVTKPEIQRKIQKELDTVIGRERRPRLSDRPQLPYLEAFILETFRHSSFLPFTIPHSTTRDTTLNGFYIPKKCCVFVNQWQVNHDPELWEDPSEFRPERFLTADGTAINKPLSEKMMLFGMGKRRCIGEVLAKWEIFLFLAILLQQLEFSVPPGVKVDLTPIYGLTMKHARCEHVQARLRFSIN", "assay": "Inhibition of CYP1A2 (unknown origin) measured after 30 mins", "type": "ADME"}, "[22]": {"assay": "Tmax in human (healthy individuals) at 270 mg, single oral dose", "type": "ADME", "settings": "in vivo"}, "[23]": {"tested_on": "786-0", "assay": "Anti-tumor activity against human 786-0 cells xenografted in mouse model assessed as increase in soluble AXL level in plasma at 30 mg/kg, po once daily for 15 days", "type": "functional, organism-based", "settings": "time 15.0 day"}, "[24]": {"biological_target": "T4, CYP2B6 (Homo sapiens, UniProt P20813)", "T4 sequence (P20813 whole entry)": "T2 sequence (P20813 whole entry)", "assay": "Time dependent inhibition of CYP2B6 (unknown origin) at 30 uM measured after 30 mins relative to control", "type": "ADME", "settings": "read-out: TDI"}, "[25]": {"assay": "AUC (0 to 120 hrs) in human (healthy individuals) at 10 mg, single oral dose", "type": "ADME", "settings": "in vivo"}}, "note": "Calls of active or inactive are those of the source. No cut-off for these calls is given here.", "data": [{"smiles": "Cc1cccnc1-c1ccc(-c2n[nH]c3ncc(-c4ccc5c(c4)CC[C@@H](N4C6COCC4C6)CC5)cc23)nc1", "values": [{"measurement": "IC50", "setting": "[1]", "result": 17, "unit": "µM"}, {"measurement": "Tmax", "setting": "[2]", "result": 6, "unit": "h"}, {"measurement": "clearance", "setting": "[3]", "result": 12.7, "unit": "mL/min/kg"}, {"measurement": "Activity", "setting": "[4]", "result": "Non-toxic"}, {"measurement": "Cmax", "setting": "[5]", "result": 12, "unit": "ng/mL"}, {"measurement": "Cmax", "setting": "[6]", "result": 40, "unit": "ng/mL"}, {"measurement": "AUC(0-t)", "setting": "[7]", "result": 7490, "unit": "ng·h/mL"}, {"measurement": "half-life", "setting": "[8]", "result": 40, "unit": "h"}, {"measurement": "Activity", "setting": "[9]", "result": "Active"}, {"measurement": "IC50", "setting": "[10]", "result": "> 100", "unit": "µM"}, {"measurement": "half-life", "setting": "[11]", "result": 54, "unit": "h"}, {"measurement": "Activity", "setting": "[12]", "result": "Active"}, {"measurement": "Ratio Ki", "setting": "[13]", "result": 1400}, {"measurement": "Ratio Ki", "setting": "[14]", "result": 330}, {"measurement": "clearance", "setting": "[15]", "result": 25, "unit": "mL/min/kg"}, {"measurement": "clearance", "setting": "[16]", "result": 8.83, "unit": "mL/min/kg"}, {"measurement": "Activity", "setting": "[17]", "result": "inactive"}, {"measurement": "IC50", "setting": "[18]", "result": 17, "unit": "µM"}, {"measurement": "half-life", "setting": "[19]", "result": 70, "unit": "h"}, {"measurement": "Tmax", "setting": "[20]", "result": 8, "unit": "h"}, {"measurement": "IC50", "setting": "[21]", "result": "> 100", "unit": "µM"}, {"measurement": "Tmax", "setting": "[22]", "result": 8, "unit": "h"}, {"measurement": "Activity", "setting": "[23]", "result": "Active"}, {"measurement": "inhibition at 0.5 h, 30 µM", "setting": "[24]", "result": 12, "unit": "%"}, {"measurement": "AUC(0-t)", "setting": "[25]", "result": 180, "unit": "ng·h/mL"}]}]}
